Reference: the SangsterLogP compilation

| logP | SMILES |
| --- | --- |
| 4.5 | CCC(C)OC(Cn1ccnc1)c1ccc(Cl)cc1Cl (stereo unspecified) |
| 6.5 | Clc1ccc(C(Cn2ccnc2)OCC2CCCCC2)c(Cl)c1 (stereo unspecified) |
| 5.13 | CCC(CC)OC(Cn1ccnc1)c1ccc(Cl)cc1Cl (stereo unspecified) |
| 6.24 | CCC(CC)COC(Cn1ccnc1)c1ccc(Cl)cc1Cl (stereo unspecified) |
| 5.04 | CC(C)=CCOC(Cn1ccnc1)c1ccc(Cl)cc1Cl (stereo unspecified) |
| 4.33 | C=CCCOC(Cn1ccnc1)c1ccc(Cl)cc1Cl (stereo unspecified) |
| 4.9 | CCCC(C)OC(Cn1ccnc1)c1ccc(Cl)cc1Cl (stereo unspecified) |
| 4.26 | C=C(C)COC(Cn1ccnc1)c1ccc(Cl)cc1Cl (stereo unspecified) |
| 4.94 | C=CCCCOC(Cn1ccnc1)c1ccc(Cl)cc1Cl (stereo unspecified) |
| 6.89 | CCCCC(CC)COC(Cn1ccnc1)c1ccc(Cl)cc1Cl (stereo unspecified) |
| 5.71 | CC(C)CCOC(Cn1ccnc1)c1ccc(Cl)cc1Cl (stereo unspecified) |
